The experiment addresses T1, P2X purinoceptor 7 (Homo sapiens, UniProt Q99572).
T1 sequence (Q99572 whole entry): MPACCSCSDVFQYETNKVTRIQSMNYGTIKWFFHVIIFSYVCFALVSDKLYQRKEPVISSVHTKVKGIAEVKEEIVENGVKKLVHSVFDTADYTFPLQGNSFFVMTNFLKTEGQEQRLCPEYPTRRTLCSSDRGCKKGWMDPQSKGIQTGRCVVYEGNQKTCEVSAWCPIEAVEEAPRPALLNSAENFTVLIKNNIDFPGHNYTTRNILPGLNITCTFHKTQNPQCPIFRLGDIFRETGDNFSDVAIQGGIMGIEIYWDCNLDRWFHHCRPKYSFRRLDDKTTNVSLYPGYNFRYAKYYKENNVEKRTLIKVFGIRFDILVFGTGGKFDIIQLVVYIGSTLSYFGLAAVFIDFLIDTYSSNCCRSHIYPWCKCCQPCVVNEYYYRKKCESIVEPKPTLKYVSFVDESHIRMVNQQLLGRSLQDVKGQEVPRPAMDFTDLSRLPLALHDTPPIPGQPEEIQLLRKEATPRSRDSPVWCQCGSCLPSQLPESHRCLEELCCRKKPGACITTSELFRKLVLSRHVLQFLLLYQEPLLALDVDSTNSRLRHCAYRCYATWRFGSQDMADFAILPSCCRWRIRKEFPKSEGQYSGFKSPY
Put plainly: SUPPLEMENTARY: Inhibition of human P2X7 receptor assessed as inhibition of ethidium bromide accumulation. Same assay as CHEMBL1103860.
In general, IC50 refers to the concentration that inhibits the measured activity by half. Regarding `Cc1c(N2CCCC2)cccc1N1CCN(Cc2ccc(F)cc2Cl)C(=O)C1=O`, the IC50 was 25.1 nM.
Regarding `Cc1ccc(N2C[C@@H](C(=O)NCc3cccc(C(F)(F)F)c3Cl)N(C)C2=O)c(C)n1`, the IC50 was 7.94 nM.
As for `Cc1ccc(N2C[C@@H](C(=O)NCc3ccc(Cl)cc3Cl)N(C)C2=O)c(C)n1`, the figure is 15.8 nM; as for `Cc1ccc(N2C[C@@H](C(=O)NCc3ccc(F)cc3Cl)N(C)C2=O)c(C)n1`, 63.1 nM.
Regarding `COc1c(N2CCOCC2)cccc1N1CCN(Cc2ccc(F)cc2Cl)C(=O)C1=O`, the half-maximal inhibitory concentration (IC50) was 25.1 nM.
As for `Cc1cccc(C(=O)N2CCN(c3ccc(F)cc3Cl)C(=O)C2)c1Cl`, the figure is 31.6 nM; as for `CCN(CC)c1ccc(N2CCN(Cc3ccc(F)cc3Cl)C(=O)C2=O)c(C)c1`, 12.6 nM; as for `COc1cccc(OC)c1N1CCN(Cc2ccc(F)cc2Cl)C(=O)C1=O`, 20 nM.
As for `O=C(c1ccc(Cl)cc1F)N1CCN(c2ccc(F)cc2Cl)C(=O)C1`, the figure is 63.1 nM; as for `O=C(c1c(Cl)cccc1Cl)N1CCN(c2ccc(F)cc2Cl)C(=O)C1`, 63.1 nM; as for `CC(C)Oc1cc(F)ccc1N1CCN(C(=O)c2cccc(C(F)(F)F)c2Cl)CC1=O`, 10 nM.
As for `CC(C)Oc1cc(F)ccc1N1CCN(C(=O)c2cccc(Cl)c2Cl)CC1=O`, the figure is 15.8 nM; as for `CN1C(=O)N(c2cn(C)cn2)C[C@H]1C(=O)NCc1ccc(Cl)cc1Cl`, 7.94 nM.
As to `C[C@@H]1CN(Cc2ccc(Cl)cc2Cl)C(=O)C(=O)N1c1ccccc1`, the half-maximal inhibitory concentration (IC50) is 25.1 nM.
The result for `O=C(c1ccc(F)c(F)c1Cl)N1CCN(c2ccc(F)cc2Cl)C(=O)C1` reads 39.8 nM; that for `O=C(c1cccc(F)c1F)N1CCN(c2ccc(F)cc2Cl)C(=O)C1`, 316 nM; that for `O=C(c1c(F)ccc(F)c1Cl)N1CCN(c2ccc(F)cc2Cl)C(=O)C1`, 631 nM.
With `O=C(c1cccc(Cl)c1F)N1CCN(c2ccc(F)cc2Cl)C(=O)C1`, the 50% inhibitory concentration (IC50) was 158 nM.
The result for `O=C(c1ccc(F)c(Cl)c1F)N1CCN(c2ccc(F)cc2Cl)C(=O)C1` reads 100 nM; that for `CN1CCN(C(=O)c2cccc(C(F)(F)F)c2Cl)CC1=O`, 63.1 nM.
On to `CN1CCN(C(=O)c2ccc(Cl)cc2Cl)CC1=O`, for which the IC50 was 251 nM.
Take `CN1C(=O)N(c2cncn2C)C[C@H]1C(=O)NCc1ccc(Cl)cc1Cl`: the 50% inhibitory concentration (IC50) is 10 nM.
With `CN1C(=O)N(c2cncn2C)C[C@H]1C(=O)NCc1cccc(C(F)(F)F)c1Cl`, the IC50 was 5.01 nM.
The result for `CN1CCN(C(=O)c2ccc(F)cc2Cl)CC1=O` reads 501 nM; that for `N#Cc1cc(F)ccc1N1CCN(C(=O)c2cccc(Cl)c2Cl)CC1=O`, 3.98 nM.
As to `CN1C(=O)N(c2cc(C(F)(F)F)ncn2)C[C@H]1C(=O)NCc1ccc(F)c(F)c1Cl`, the IC50 is 50.1 nM.
As for `CN1C(=O)N(c2cc(C(F)(F)F)ncn2)C[C@H]1C(=O)NCc1ccc(Cl)cc1Cl`, the figure is 31.6 nM.
Consider `CN1C(=O)N(c2cc(C(F)(F)F)ncn2)C[C@H]1C(=O)NCc1cccc(C(F)(F)F)c1Cl`, for which the half-inhibitory concentration (IC50) is 31.6 nM.
The result for `CC(C)CN1CCN(C(=O)c2cccc(Cl)c2Cl)CC1=O` reads 50.1 nM; that for `O=C(c1ccc(F)cc1Cl)N1CCN(c2ccc(F)cc2Cl)C(=O)C1`, 251 nM; that for `Cc1cccc(C(=O)N2CCN(C)C(=O)C2)c1Cl`, 631 nM.
On to `CCN1CCN(C(=O)c2cccc(C(F)(F)F)c2Cl)CC1=O`, for which the IC50 was 126 nM.
Take `O=C1CN(C(=O)c2cccc(C(F)(F)F)c2Cl)CCN1CC(F)(F)F`: the concentration for half-maximal inhibition (IC50) is 200 nM.
For the molecule `CC(C)N1CCN(C(=O)c2cccc(C(F)(F)F)c2Cl)CC1=O`, the half-inhibitory concentration (IC50) was 100 nM.
For the molecule `COCCN1CCN(C(=O)c2cccc(C(F)(F)F)c2Cl)CC1=O`, the 50% inhibitory concentration (IC50) was 316 nM.
As for `COc1ccc(I)cc1N1CCN(C(=O)c2cccc(C(F)(F)F)c2Cl)CC1=O`, the figure is 12.6 nM; as for `CC(C)CN1CCN(C(=O)c2cccc(C(F)(F)F)c2Cl)CC1=O`, 200 nM; as for `CN1C(=O)N(c2ccc(F)nc2)C[C@H]1C(=O)NCc1ccc(Cl)cc1Cl`, 20 nM.
As for `CN1C(=O)N(c2ccc(F)nc2)C[C@H]1C(=O)NCc1cccc(C(F)(F)F)c1Cl`, the figure is 7.94 nM; as for `Cc1c(Br)cccc1N1CCN(C(=O)c2cccc(C(F)(F)F)c2Cl)CC1=O`, 6.31 nM.
`O=C1CN(C(=O)c2cccc(C(F)(F)F)c2Cl)CCN1CC1CCCCC1`: the IC50 is 79.4 nM.
The result for `CCC(CC)N1CCN(C(=O)c2cccc(C(F)(F)F)c2Cl)CC1=O` reads 6.31 nM; that for `O=C1CN(C(=O)c2cccc(C(F)(F)F)c2Cl)CCN1CC1CC1`, 12.6 nM.
The result for `CCCN1CCN(C(=O)c2cccc(C(F)(F)F)c2Cl)CC1=O` reads 50.1 nM; that for `O=C1CN(C(=O)c2cccc(C(F)(F)F)c2Cl)CCN1Cc1ccncc1`, 316 nM.
As for `CN1C[C@@H](C(=O)NCc2ccc(Cl)cc2Cl)N(CC(F)(F)F)C1=O`, the figure is 15.8 nM; as for `CCN1C(=O)N(C)C[C@H]1C(=O)NCc1ccc(Cl)cc1Cl`, 1.58 nM; as for `CCN1C(=O)N(C)C[C@H]1C(=O)NCc1cccc(C(F)(F)F)c1Cl`, 0.794 nM.
For the molecule `CCN1C(=O)N(C)C[C@H]1C(=O)NCc1ccc(F)cc1Cl`, the IC50 is 7.94 nM.
As to `COc1ccc(N2C[C@@H](C(=O)NCc3ccc(Cl)cc3Cl)N(C)C2=O)cn1`, the IC50 is 15.8 nM.
On to `COc1ccc(N2C[C@@H](C(=O)NCc3cccc(C(F)(F)F)c3Cl)N(C)C2=O)cn1`, for which the IC50 is 7.94 nM.
`O=C(c1cccc(C(F)(F)F)c1Cl)N1CCn2ccnc2C1`: the IC50 was 100 nM.
As for `N#Cc1cc(F)ccc1N1CCN(C(=O)c2cccc(C(F)(F)F)c2Cl)CC1=O`, the figure is 3.98 nM; as for `O=C1CN(C(=O)c2cccc(C(F)(F)F)c2Cl)CCN1Cc1cccnc1`, 398 nM.
Take `CN1C(=O)N(c2cnccn2)C[C@H]1C(=O)NCc1cccc(C(F)(F)F)c1Cl`: the IC50 is 15.8 nM.
As for `CN1C(=O)N(c2cccnc2Cl)C[C@H]1C(=O)NCc1ccc(Cl)cc1Cl`, the figure is 5.01 nM; as for `O=C1CN(C(=O)c2cccc(C(F)(F)F)c2Cl)CCN1Cc1ccccn1`, 158 nM.
Turning to `O=C1CN(C(=O)c2cccc(C(F)(F)F)c2Cl)CCN1CC1CCC1`, the IC50 is 200 nM.
As for `O=C(c1cccc(C(F)(F)F)c1Cl)N1CCN(C2CCCC2)C(=O)C1`, the figure is 158 nM; as for `O=C1CN(C(=O)c2cccc(C(F)(F)F)c2Cl)CCN1CC1CCCO1` (configuration not stated), 79.4 nM.
As for `CN1C(=O)NC[C@H]1C(=O)NCc1cccc(C(F)(F)F)c1F`, the figure is 39.8 nM; as for `Cc1c(CNC(=O)[C@@H]2CNC(=O)N2C)cccc1C(F)(F)F`, 2 nM.
The result for `CN1C(=O)NC[C@H]1C(=O)NCc1ccc(Cl)c(C(F)(F)F)c1` reads 158 nM; that for `CN1C(=O)N(c2cccnc2Cl)C[C@H]1C(=O)NCc1ccc(F)c(F)c1Cl`, 10 nM.
With `CN1C(=O)N(c2cccnc2Cl)C[C@H]1C(=O)NCc1cccc(C(F)(F)F)c1Cl`, the 50% inhibitory concentration (IC50) is 1.58 nM.
Regarding `CN1C(=O)NC[C@H]1C(=O)NCc1ccc(F)c(C(F)(F)F)c1`, the IC50 was 100 nM.
As for `Cc1c(Cl)cccc1CNC(=O)[C@@H]1CNC(=O)N1C`, the figure is 20 nM; as for `Cc1cc(Cl)cc(Cl)c1CNC(=O)[C@@H]1CNC(=O)N1C`, 1.26 nM; as for `Cc1cc(Cl)ccc1CNC(=O)[C@@H]1CNC(=O)N1C`, 31.6 nM.
Consider `CN1C(=O)N(c2ncc(F)cn2)C[C@H]1C(=O)NCc1ccc(Cl)cc1Cl`, for which the IC50 is 3.98 nM.
The result for `CCN1C(=O)NC[C@H]1C(=O)NCc1ccc(Cl)cc1Cl` reads 12.6 nM.
In the case of `CCN1C(=O)NC[C@H]1C(=O)NCc1ccc(F)cc1Cl`, the IC50 was 39.8 nM.
As to `CCN1C(=O)NC[C@H]1C(=O)NCc1cccc(C(F)(F)F)c1Cl`, the concentration for half-maximal inhibition (IC50) was 3.98 nM.
As for `Cc1c(Cl)cccc1CNC(=O)[C@@H]1CN(C)C(=O)N1C`, the figure is 6.31 nM; as for `CN1C[C@@H](C(=O)NCc2ccc(F)c(C(F)(F)F)c2)N(C)C1=O`, 50.1 nM.
For `CN1C[C@@H](C(=O)NCc2ccc(F)c(Cl)c2Cl)N(C)C1=O`, the IC50 was 2.51 nM.
As for `CN1C[C@@H](C(=O)NCc2ccc(Cl)c(C(F)(F)F)c2)N(C)C1=O`, the figure is 50.1 nM; as for `CN1C[C@@H](C(=O)NCc2ccc(F)c(C(F)(F)F)c2Cl)N(C)C1=O`, 1 nM.
The result for `O=C(c1cccc(C(F)(F)F)c1Cl)N1CCn2cc(C(F)(F)F)nc2C1` reads 39.8 nM; that for `O=C(c1ccc(Cl)cc1Cl)N1CCn2cc(C(F)(F)F)nc2C1`, 794 nM.
As for `COc1ccnc(N2C[C@@H](C(=O)NCc3ccc(Cl)cc3Cl)N(C)C2=O)n1`, the figure is 20 nM; as for `Cc1cc(Cl)cc(Cl)c1CNC(=O)[C@@H]1CN(C)C(=O)N1C`, 0.794 nM.
`CN1C(=O)N(c2ncc(Cl)cn2)C[C@H]1C(=O)NCc1ccc(Cl)cc1Cl`: the half-maximal inhibitory concentration (IC50) is 6.31 nM.
The result for `N#CCCN1CCN(C(=O)c2cccc(C(F)(F)F)c2Cl)CC1=O` reads 316 nM; that for `CC(C#N)N1CCN(C(=O)c2cccc(C(F)(F)F)c2Cl)CC1=O` (configuration not stated), 251 nM.
In the case of `Cc1ccc(N2C[C@@H](C(=O)NCc3ccc(Cl)cc3Cl)N(C)C2=O)cn1`, the IC50 is 25.1 nM.
The result for `Cc1ccc(N2C[C@@H](C(=O)NCc3ccc(F)c(F)c3Cl)N(C)C2=O)cn1` reads 31.6 nM.

The values above are taken from ChEMBL document CHEMBL2218064, “Structure-activity relationship data for chemical series of antagonists of the P2X7 receptor (Supplementary Bioactivity Data for publication CHEMBL1157114)”.
